Measured values taken from patent US20060069132A1, “Azolecarboxamide herbicides” (priority 2004, published 2006).

Columns and labels:
[1] = tested on: common (oilseed) sunflower; experiment: Test C pre-/postemergence herbicide test; assay type: in vivo, Helianthus annuus; conditions: for Plant response rating (0 = no effect, 100 = complete control), Sunflower: 62 g ai/ha; for Plant response rating (0 = no effect, 100 = complete control), Sunflower / Plant response rating, Sunflower: preemergence; for Plant response rating, Sunflower: 125 g ai/ha, scale 0 (no effect) to 100 (complete control), visual, 12 to 14 days; for Sunflower plant response rating: Preemergence, 500 g ai/ha, scale 0 to 100, 0 no effect, 100 complete control
How it was run: (§1)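 Visual ratings on a 0–100 scale (100 = complete control) made versus untreated controls after 12 to 14 greenhouse days. Test chemicals, formulated in surfactant-containing non-phytotoxic solvent, applied preemergence to planted seeds or postemergence to 1- to 4-leaf plants (2 to 18 cm).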

goosegrass = experiment: Test C pre-/postemergence herbicide test; assay type: in vivo, Eleusine indica; conditions: for Goosegrass plant response rating: 500 g ai/ha
How it was run: as §1

soybean = experiment: Test C pre-/postemergence herbicide test; assay type: in vivo, Glycine max; conditions: for Soybean plant response rating: 500 g ai/ha
How it was run: as §1

cocklebur = experiment: Test C pre-/postemergence herbicide test; assay type: in vivo, Xanthium strumarium; conditions: for Cocklebur plant response rating: 500 g ai/ha
How it was run: as §1

velvetleaf [2] = experiment: Test A pre-/postemergence herbicide test; assay type: in vivo, Abutilon theophrasti
How it was run: (§2)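 Visual injury scores on a 0–100 scale (100 = complete control) taken about ten days post-treatment in greenhouse against untreated controls; dash means no result. Treatments: preemergence soil spray and postemergence spray to runoff on one- to two-leaf plants 2 to 10 cm tall, surfactant-containing formulation.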

morningglory = experiment: Test A pre-/postemergence herbicide test; assay type: in vivo, Ipomoea spp.
How it was run: as §2

velvetleaf [3] = experiment: Test C pre-/postemergence herbicide test; assay type: in vivo, Abutilon theophrasti; conditions: for Velvetleaf plant response rating: 500 g ai/ha
How it was run: as §1

barnyardgrass = experiment: Test C flooded paddy test; assay type: in vivo, Echinochloa crus-galli
How it was run: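 Injury scored visually against controls on a 0 (no effect) to 100 (complete control) scale, 12 to 14 days after treatment in greenhouse. Flooded paddy plants treated at 2-leaf stage; postemergence plants at 1- to 4-leaf stage, 2 to 18 cm tall.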

yellow nutsedge = experiment: Test C pre-/postemergence herbicide test; assay type: in vivo, Cyperus esculentus; conditions: for Nutsedge, Yellow plant response rating: 500 g ai/ha
How it was run: as §1

lambsquarters = experiment: Test C pre-/postemergence herbicide test; assay type: in vivo, Chenopodium album; conditions: for Lambsquarters plant response rating: 500 g ai/ha
How it was run: as §1

ducksalad = experiment: Test C flooded paddy test; assay type: in vivo, Heteranthera limosa
[4] = 125 g ai/ha, scale 0 (no effect) to 100 (complete control), visual, 12 to 14 days, preemergence
[5] = Postemergence, 250 g ai/ha, scale 0 to 100, 0 no effect, 100 complete control
[6] = Preemergence, scale 0 to 100, 0 no effect, 100 complete control
[7] = postemergence, 125 g ai/ha, scale 0 to 100
[8] = postemergence, 62 g ai/ha, scale 0 to 100
[9] = Postemergence, 500 g ai/ha, 0 to 100 scale, 0 no effect, 100 complete control
[10] = Postemergence, 2000 g ai/ha, 0 to 100 scale, 0 no effect, 100 complete control
[11] = Preemergence, 2000 g ai/ha, visual rating, 0 to 100 scale (0 no effect, 100 complete control)
[12] = preemergence, 500 g ai/ha, visual injury, 0 to 100 scale (0 no effect, 100 complete control)
[13] = Preemergence, 500 g ai/ha, visual rating, 0 to 100 scale (0 no effect, 100 complete control)
[14] = 62 g ai/ha, scale 0 to 100 (0 no effect, 100 complete control)
[15] = 125 g ai/ha, scale of 0 to 100, 0 is no effect, 100 is complete control
[16] = 250 g ai/ha, scale of 0 to 100, 0 is no effect, 100 is complete control
[17] = 500 g ai/ha, visual rating after 12 to 14 days, scale 0 to 100 (0 no effect, 100 complete control)
[18] = 125 g ai/ha, scale 0 to 100 (0 no effect, 100 complete control)

CCNC(=O)c1cccc(NC(=O)c2cc(C(C)(C)C)nn2CC)n1 [Compound 144]
55: Velvetleaf plant response rating (velvetleaf [2]; [9])
30: Plant response rating (0 = no effect, 100 = complete control), Goosegrass (goosegrass; 62 g ai/ha, preemergence)
80: Goosegrass plant response rating (goosegrass; [6]) | Soybean plant response rating (soybean; [6]) | Cocklebur plant response rating (cocklebur; [6]) | Plant response rating, Ducksalad (ducksalad; [17])
100: Plant response rating, Velvetleaf (velvetleaf [3]; [4]) | Velvetleaf plant response rating (velvetleaf [3]; [6]) | Lambsquarters plant response rating (lambsquarters; Postemergence, scale 0 to 100) | Plant response rating, Lambsquarters (lambsquarters; [5]) | Lambsquarters plant response rating (lambsquarters; [6]) | Plant response rating, Lambsquarters (lambsquarters; [7]) | Plant response rating, Lambsquarters (lambsquarters; [8])
95: Plant response rating (0 = no effect, 100 = complete control), Lambsquarters (lambsquarters; 62 g ai/ha, preemergence) | Plant response rating, Lambsquarters (lambsquarters; [4])
35: Plant response rating, Morningglory (morningglory; [10])
20: Goosegrass plant response rating (goosegrass; Postemergence, scale 0 to 100) | Morningglory plant response rating (morningglory; [13]) | Plant response rating, Velvetleaf (velvetleaf [3]; [7]) | Barnyardgrass plant response rating (barnyardgrass; [14]) | Barnyardgrass plant response rating (barnyardgrass; [15]) | Ducksalad plant response rating (ducksalad; [14])
25: Morningglory plant response rating (morningglory; [9])
70: Plant response rating, Soybean (soybean; [8]) | Cocklebur plant response rating (cocklebur; Postemergence, scale 0 to 100) | Plant response rating, Cocklebur (cocklebur; [5]) | Velvetleaf plant response rating (velvetleaf [2]; [12]) | Ducksalad plant response rating (ducksalad; [16])
0: Plant response rating (0 = no effect, 100 = complete control), Sunflower [1] | Plant response rating, Sunflower [1] | Plant response rating (0 = no effect, 100 = complete control), Soybean (soybean; 62 g ai/ha, preemergence) | Plant response rating (0 = no effect, 100 = complete control), Cocklebur (cocklebur; 62 g ai/ha, preemergence) | Plant response rating, Cocklebur (cocklebur; [4]) | Plant response rating, Cocklebur (cocklebur; 250 g ai/ha, scale 0 to 100 (0 no effect, 100 complete control), visual, 12 to 14 days, preemergence) | Plant response rating, Velvetleaf (velvetleaf [3]; [8]) | Plant response rating (0 = no effect, 100 = complete control), Nutsedge, Yellow (yellow nutsedge; 62 g ai/ha, preemergence) | Plant response rating, Nutsedge, Yellow (yellow nutsedge; [4]) | Nutsedge, Yellow plant response rating (yellow nutsedge; Postemergence, scale 0 to 100) | Plant response rating, Nutsedge, Yellow (yellow nutsedge; [5]) | Plant response rating, Nutsedge, Yellow (yellow nutsedge; [7]) | Plant response rating, Nutsedge, Yellow (yellow nutsedge; [8])
10: Plant response rating, Goosegrass (goosegrass; [5]) | Plant response rating, Cocklebur (cocklebur; [8])
60: Plant response rating, Goosegrass (goosegrass; [4]) | Plant response rating, Barnyardgrass (barnyardgrass; [17])
90: Soybean plant response rating (soybean; Postemergence, scale 0 to 100) | Plant response rating, Soybean (soybean; [5]) | Velvetleaf plant response rating (velvetleaf [2]; [11])
40: Sunflower plant response rating [1] | Plant response rating, Soybean (soybean; [4]) | Plant response rating, Cocklebur (cocklebur; [7]) | Nutsedge, Yellow plant response rating (yellow nutsedge; [6])
50: Velvetleaf plant response rating (velvetleaf [3]; Postemergence, scale 0 to 100) | Plant response rating, Velvetleaf (velvetleaf [3]; [5]) | Barnyardgrass plant response rating (barnyardgrass; [16]) | Ducksalad plant response rating (ducksalad; [18])
85: Plant response rating, Soybean (soybean; [7])
5: Plant response rating, Goosegrass (goosegrass; [7]) | Plant response rating, Goosegrass (goosegrass; [8])
75: Plant response rating, Velvetleaf (velvetleaf [2]; [10]) | Morningglory plant response rating (morningglory; [11])

C#CCNC(=O)c1cccc(NC(=O)c2cc(C(C)(C)C)nn2CC)n1 [Compound 147]
30: Velvetleaf plant response rating (velvetleaf [2]; [9]) | Plant response rating, Morningglory (morningglory; [10]) | Plant response rating, Velvetleaf (velvetleaf [3]; [7])
20: Plant response rating, Goosegrass (goosegrass; [4]) | Cocklebur plant response rating (cocklebur; Postemergence, scale 0 to 100) | Morningglory plant response rating (morningglory; [9]) | Morningglory plant response rating (morningglory; [13]) | Plant response rating, Velvetleaf (velvetleaf [3]; [4])
35: Plant response rating, Soybean (soybean; [7])
80: Goosegrass plant response rating (goosegrass; [6])
85: Velvetleaf plant response rating (velvetleaf [2]; [11])
25: Velvetleaf plant response rating (velvetleaf [2]; [12])
100: Lambsquarters plant response rating (lambsquarters; Postemergence, scale 0 to 100) | Plant response rating, Lambsquarters (lambsquarters; [5]) | Lambsquarters plant response rating (lambsquarters; [6]) | Plant response rating, Lambsquarters (lambsquarters; [7])
40: Plant response rating, Soybean (soybean; [5]) | Velvetleaf plant response rating (velvetleaf [3]; Postemergence, scale 0 to 100)
90: Velvetleaf plant response rating (velvetleaf [3]; [6]) | Plant response rating, Lambsquarters (lambsquarters; [4]) | Plant response rating, Lambsquarters (lambsquarters; [8])
10: Plant response rating, Soybean (soybean; [8])
70: Soybean plant response rating (soybean; Postemergence, scale 0 to 100) | Plant response rating (0 = no effect, 100 = complete control), Lambsquarters (lambsquarters; 62 g ai/ha, preemergence)
5: Goosegrass plant response rating (goosegrass; Postemergence, scale 0 to 100) | Plant response rating, Goosegrass (goosegrass; [5]) | Soybean plant response rating (soybean; [6]) | Plant response rating, Cocklebur (cocklebur; [5]) | Plant response rating, Cocklebur (cocklebur; [7])
50: Plant response rating, Velvetleaf (velvetleaf [2]; [10])
0: Plant response rating (0 = no effect, 100 = complete control), Sunflower [1] | Plant response rating, Sunflower [1] | Sunflower plant response rating [1] | Plant response rating (0 = no effect, 100 = complete control), Goosegrass (goosegrass; 62 g ai/ha, preemergence) | Plant response rating, Goosegrass (goosegrass; [7]) | Plant response rating, Goosegrass (goosegrass; [8]) | Plant response rating (0 = no effect, 100 = complete control), Soybean (soybean; 62 g ai/ha, preemergence) | Plant response rating, Soybean (soybean; [4]) | Plant response rating (0 = no effect, 100 = complete control), Cocklebur (cocklebur; 62 g ai/ha, preemergence) | Cocklebur plant response rating (cocklebur; [6]) | Plant response rating, Cocklebur (cocklebur; [8]) | Plant response rating, Velvetleaf (velvetleaf [3]; [8]) | Barnyardgrass plant response rating (barnyardgrass; 16 g ai/ha, scale 0 to 100) | Barnyardgrass plant response rating (barnyardgrass; 31 g ai/ha, scale 0 to 100) | Barnyardgrass plant response rating (barnyardgrass; [14]) | Barnyardgrass plant response rating (barnyardgrass; [15]) | Plant response rating (0 = no effect, 100 = complete control), Nutsedge, Yellow (yellow nutsedge; 62 g ai/ha, preemergence) | Plant response rating, Nutsedge, Yellow (yellow nutsedge; [4]) | Nutsedge, Yellow plant response rating (yellow nutsedge; Postemergence, scale 0 to 100) | Plant response rating, Nutsedge, Yellow (yellow nutsedge; [5]) | Nutsedge, Yellow plant response rating (yellow nutsedge; [6]) | Plant response rating, Nutsedge, Yellow (yellow nutsedge; [7]) | Plant response rating, Nutsedge, Yellow (yellow nutsedge; [8]) | Ducksalad plant response rating (ducksalad; 16 g ai/ha, scale 0 to 100) | Ducksalad plant response rating (ducksalad; 31 g ai/ha, scale 0 to 100) | Ducksalad plant response rating (ducksalad; [14]) | Ducksalad plant response rating (ducksalad; [18])
45: Morningglory plant response rating (morningglory; [11])
